Target: T1, WT BTK protein (Homo sapiens, UniProt Q06187)
T1 construct: measured for intracellular BTK protein levels by Western blotting; endogenous in cells; host or cells: TMD-8 or RAMOS cells
Assay: BTK protein degradation assay (Western blotting), WT BTK
Type: cell-based
Details: concentration range accounting for 50% degradation of WT BTK protein, TMD-8 or RAMOS cells, 24 hours
In short: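 BTK levels were read by Western blotting (GAPDH and β-actin normalisers) in RIPA lysates of TMD-8 cells exposed to compounds for 24 h at 1×10^6 cells/mL. Results scored in ranges of the concentration producing 50% loss of WT BTK.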

T1 sequence (Q06187 whole entry): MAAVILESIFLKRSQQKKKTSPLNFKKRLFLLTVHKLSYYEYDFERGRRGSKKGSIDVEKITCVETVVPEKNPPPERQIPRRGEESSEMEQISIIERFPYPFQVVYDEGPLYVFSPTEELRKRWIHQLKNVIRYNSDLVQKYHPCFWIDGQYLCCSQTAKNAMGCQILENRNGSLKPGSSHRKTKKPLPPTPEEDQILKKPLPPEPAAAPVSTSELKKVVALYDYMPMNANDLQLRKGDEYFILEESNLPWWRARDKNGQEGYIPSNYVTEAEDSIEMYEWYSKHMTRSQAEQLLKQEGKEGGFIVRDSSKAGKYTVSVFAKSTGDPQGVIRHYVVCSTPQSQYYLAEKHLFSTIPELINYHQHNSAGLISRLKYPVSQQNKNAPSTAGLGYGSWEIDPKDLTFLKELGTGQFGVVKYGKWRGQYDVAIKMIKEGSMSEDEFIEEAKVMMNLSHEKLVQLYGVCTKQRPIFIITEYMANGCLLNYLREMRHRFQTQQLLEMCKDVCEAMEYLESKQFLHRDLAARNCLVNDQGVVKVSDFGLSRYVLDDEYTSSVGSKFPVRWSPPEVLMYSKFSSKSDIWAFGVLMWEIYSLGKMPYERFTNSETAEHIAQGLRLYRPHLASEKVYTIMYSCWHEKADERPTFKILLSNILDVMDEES

| SMILES | DC50 [nM] |
| --- | --- |
| Cc1cccc(C)c1Nc1nn(C)c2nc(Nc3ccc4c(c3)CN(C(=S)C3CCN(C(=O)CNc5ccc6c(c5)C(=O)N(C5CCC(=O)NC5=O)C6=O)CC3)CC4)ncc12 (stereo not shown) [Compound 235, 5-((2-(4-(7-((3-((2,6-dimethylphenyl)amino)-1-methyl-1H-pyrazolo[3,4-d]pyrimidin-6-yl)amino)-1,2,3,4-tetrahydroisoquinoline-2-carbonothioyl)piperidin-1-yl)-2-oxoethyl)amino)-2-(2,6-dioxopiperidin-3-yl)isoindoline-1,3-dione] | 0.1 to 10 |
| Cc1cccc(C)c1Nc1nn(C)c2nc(Nc3ccc4c(c3)CN(C(=S)C3CCN(C(=O)COc5ccc6c(c5)C(=O)N(C5CCC(=O)NC5=O)C6=O)CC3)CC4)ncc12 (stereo not shown) [Compound 236, 5-(2-(4-(7-((3-((2,6-dimethylphenyl)amino)-1-methyl-1H-pyrazolo[3,4-d]pyrimidin-6-yl)amino)-1,2,3,4-tetrahydroisoquinoline-2-carbonothioyl)piperidin-1-yl)-2-oxoethoxy)-2-(2,6-dioxopiperidin-3-yl)isoindoline-1,3-dione] | 0.1 to 10 |
| Cc1cccc(C)c1Nc1nn(C)c2nc(Nc3ccc4c(c3)CN(CC3CCN(c5ccc6c(c5)CN(C5CCC(=O)NC5=O)C6=O)CC3)CC4)ncc12 (stereo not shown) [Compound 237, 3-(5-(4-((7-((3-((2,6-Dimethylphenyl)amino)-1-methyl-1H-pyrazolo[3,4-d]pyrimidin-6-yl)amino)-3,4-dihydroisoquinolin-2 (1H)-yl)methyl)piperidin-1-yl)-1-oxoisoindolin-2-yl)piperidin-2,6-one] | 0.1 to 10 |
| Cc1cccc(C)c1Nc1nn(C)c2nc(Nc3ccc(N4CCN(c5ccc6c(c5)C(=O)N(C5CCC(=O)NC5=O)C6=O)CC4)cc3)ncc12 (stereo not shown) [Compound 238, 5-(4-(4-((3-((2,6-dimethylphenyl)amino)-1-methyl-1H-pyrazolo[3,4-d]pyrimidin-6-yl)amino)phenyl)piperazin-1-yl)-2-(2,6-dioxopiperidin-3-yl)isoindoline-1,3-dione] | 0.1 to 10 |
| Cc1cccc(C)c1Nc1nn(C)c2nc(Nc3ccc(N4CCN(c5cc6c(cc5F)C(=O)N(C5CCC(=O)NC5=O)C6=O)CC4)cc3)ncc12 (stereo not shown) [Compound 239, 5-(4-(4-((3-((2,6-Dimethylphenyl)amino)-1-methyl-1H-pyrazolo[3,4-d]pyrimidin-6-yl)amino)phenyl)piperazin-1-yl)-2-(2,6-dioxopiperidin-3-yl)-6-fluoroisoindoline-1,3-dione] | 10 to 1000 |
| Cc1cccc(C)c1Nc1nn(C)c2nc(Nc3ccc4c(c3)CN(C(=O)/C(C#N)=C/C3CCN(C(=O)C5CCN(c6ccc7c(c6)C(=O)N(C6CCC(=O)NC6=O)C7=O)CC5)CC3)CC4)ncc12 (stereo not shown) [Compound 240, (E)-2-(7-((3-((2,6-Dimethylphenyl)amino)-1-methyl-1H-pyrazolo[3,4-d]pyrimidin-6-yl)amino)-1,2,3,4-tetrahydroisoquinoline-2-carbonyl)-3-(1-(1-(2-(2,6-dioxopiperidin-3-yl)-1,3-dioxoisoindolin-5-yl)piperidine-4-carbonyl)piperidin-4-yl)acrylonitrile] | 0.1 to 10 |
| Cc1cccc(C)c1Nc1nn(C)c2nc(Nc3ccc4c(c3)CN(C(=O)/C(C#N)=C/C3CCN(C(=O)COc5ccc6c(c5)C(=O)N(C5CCC(=O)NC5=O)C6=O)CC3)CC4)ncc12 (stereo not shown) [Compound 241, (E)-2-(7-((3-((2,6-dimethylphenyl)amino)-1-methyl-1H-pyrazolo[3,4-d]pyrimidin-6-yl)amino)-1,2,3,4-tetrahydroisoquinoline-2-carbonyl)-3-(1-(2-((2-(2,6-dioxopiperidin-3-yl)-1,3-dioxoisoindolin-5-yl)oxy)acetyl)piperidin-4-yl)acrylonitrile] | 0.1 to 10 |
| Cc1cccc(C)c1Nc1nn(C)c2nc(Nc3ccc4c(c3)CN(C(=O)C3(F)CCN(c5ccc6c(c5)C(=O)N(C5CCC(=O)NC5=O)C6=O)CC3)CC4)ncc12 (stereo not shown) [Compound 243, 5-(4-(7-((3-((2,6-dimethylphenyl)amino)-1-methyl-1H-pyrazolo[3,4-d]pyrimidin-6-yl)amino)-1,2,3,4-tetrahydroisoquinoline-2-carbonyl)-4-fluoropiperidin-1-yl)-2-(2,6-dioxopiperidin-3-yl)isoindoline-1,3-dione] | 0.1 to 10 |
| Cc1cccc(C)c1Nc1nn(C)c2nc(Nc3ccc4c(c3)CN(C(=O)C3(F)CCN(c5cc6c(cc5F)C(=O)N(C5CCC(=O)NC5=O)C6=O)CC3)CC4)ncc12 (stereo not shown) [Compound 244, 5-(4-(7-((3-((2,6-dimethylphenyl)amino)-1-methyl-1H-pyrazolo[3,4-d]pyrimidin-6-yl)amino)-1,2,3,4-tetrahydroisoquinoline-2-carbonyl)-4-fluoropiperidin-1-yl)-2-(2,6-dioxopiperidin-3-yl)-6-fluoroisoindoline-1,3-dione] | 0.1 to 10 |
| Cc1cccc(C)c1Nc1nn(C)c2nc(Nc3ccc(N4CCN(CC5CCN(c6cc7c(cc6F)C(=O)N(C6CCC(=O)NC6=O)C7)CC5)CC4)cc3)ncc12 (stereo not shown) [Compound 245, 3-(5-(4-((4-(4-((3-((2,6-Dimethylphenyl)amino)-1-methyl-1H-pyrazolo[3,4-d]pyrimidin-6-yl)amino)phenyl)piperazin-1-yl)methyl)piperidin-1-yl)-6-fluoro-1-oxoisoindolin-2-yl)piperidin-2,6-one] | 0.1 to 10 |
| Cc1cccc(C)c1Nc1nn(C)c2nc(Nc3ccc4c(c3)CN(C(=O)C3(F)CCN(C(=O)C5CCN(c6ccc7c(c6)C(=O)N(C6CCC(=O)NC6=O)C7=O)CC5)CC3)CC4)ncc12 (stereo not shown) [Compound 246, 5-(4-(4-(7-((3-((2,6-dimethylphenyl)amino)-1-methyl-1H-pyrazolo[3,4-d]pyrimidin-6-yl)amino)-1,2,3,4-tetrahydroisoquinoline-2-carbonyl)-4-fluoropiperidine-1-carbonyl)piperidin-1-yl)-2-(2,6-dioxopiperidin-3-yl)isoindoline-1,3-dione] | 0.1 to 10 |
| Cc1cccc(C)c1Nc1nn(C)c2nc(Nc3ccc4c(c3)CN(C(=O)C3(F)CCN(C(=O)CNc5ccc6c(c5)C(=O)N(C5CCC(=O)NC5=O)C6=O)CC3)CC4)ncc12 (stereo not shown) [Compound 247, 5-((2-(4-(7-((3-((2,6-Dimethylphenyl)amino)-1-methyl-1H-pyrazolo[3,4-d]pyrimidin-6-yl)amino)-1,2,3,4-tetrahydroisoquinoline-2-carbonyl)-4-fluoropiperidin-1-yl)-2-oxoethyl)amino)-2-(2,6-dioxopiperidin-3-yl)isoindoline-1,3-dione] | 0.1 to 10 |

Further lines, results first:

| DC50 [nM] | SMILES |
| --- | --- |
| 0.1 to 10 | Cc1cccc(C)c1Nc1nn(C)c2nc(Nc3ccc4c(c3)CN(C(=O)C3(F)CCN(C(=O)COc5ccc6c(c5)C(=O)N(C5CCC(=O)NC5=O)C6=O)CC3)CC4)ncc12 (stereo not shown) [Compound 248, 5-(2-(4-(7-((3-((2,6-Dimethylphenyl)amino)-1-methyl-1H-pyrazolo[3,4-d]pyrimidin-6-yl)amino)-1,2,3,4-tetrahydroisoquinoline-2-carbonyl)-4-fluoropiperidin-1-yl)-2-oxoethoxy)-2-(2,6-dioxopiperidin-3-yl)isoindoline-1,3-dione] |
| 0.1 to 10 | Cc1cccc(C)c1Nc1nn(C)c2nc(Nc3ccc(F)c(C4=CCN(CC5CCN(c6ccc7c(c6)C(=O)N(C6CCC(=O)NC6=O)C7=O)CC5)CC4)c3)ncc12 (stereo not shown) [Compound 250, 5-(4-((4-(5-((3-((2,6-Dimethylphenyl)amino)-1-methyl-1H-pyrazolo[3,4-d]pyrimidin-6-yl)amino)-2-fluorophenyl)-3,6-dihydropyridin-1 (2H)-yl)methyl)piperidin-1-yl)-2-(2,6-dioxopiperidin-3-yl)isoindoline-1,3-dione] |
| 0.1 to 10 | Cc1cccc(C)c1Nc1nn(C)c2nc(Nc3ccc(C4CCN(C(=O)C5(F)CCN(c6ccc7c(c6)C(=O)N(C6CCC(=O)NC6=O)C7=O)CC5)CC4)cc3)ncc12 (stereo not shown) [Compound 253, 5-(4-(4-(4-((3-((2,6-dimethylphenyl)amino)-1-methyl-1H-pyrazolo[3,4-d]pyrimidin-6-yl)amino)phenyl)piperidine-1-carbonyl)-4-fluoropiperidin-1-yl)-2-(2,6-dioxopiperidin-3-yl)isoindoline-1,3-dione] |
| 10 to 1000 | Cc1cccc(C)c1Nc1nn(C)c2nc(Nc3ccc(C4CCN(C(=O)C5(F)CCN(c6cc7c(cc6F)C(=O)N(C6CCC(=O)NC6=O)C7=O)CC5)CC4)cc3)ncc12 (stereo not shown) [Compound 254, 5-(4-(4-(4-((3-((2,6-dimethylphenyl)amino)-1-methyl-1H-pyrazolo[3,4-d]pyrimidin-6-yl)amino)phenyl)piperidine-1-carbonyl)-4-fluoropiperidin-1-yl)-2-(2,6-dioxopiperidin-3-yl)-6-fluoroisoindoline-1,3-dione] |
| 0.1 to 10 | Cc1cccc(C)c1Nc1nn(C)c2nc(Nc3ccc(N4CCN(CC5CCN(C(=O)c6ccc7c(c6)CN(C6CCC(=O)NC6=O)C7=O)CC5)CC4)cc3)ncc12 (stereo not shown) [Compound 256, 3-(5-(4-((4-(4-((3-((2,6-Dimethylphenyl)amino)-1-methyl-1H-pyrazolo[3,4-d]pyrimidin-6-yl)amino)phenyl)piperazin-1-yl)methyl)piperidine-1-carbonyl)-1-oxoisoindolin-2-yl)piperidin-2,6-one] |
| 0.1 to 10 | Cc1cccc(C)c1Nc1nn(C)c2nc(Nc3ccc4c(c3)CN(CC3CCN(C(=O)c5ccc6c(c5)CN(C5CCC(=O)NC5=O)C6=O)CC3)CC4)ncc12 (stereo not shown) [Compound 258, 3-(5-(4-((7-((3-((2,6-Dimethylphenyl)amino)-1-methyl-1H-pyrazolo[3,4-d]pyrimidin-6-yl)amino)-3,4-dihydroisoquinolin-2 (1H)-yl)methyl)piperidine-1-carbonyl)-1-oxoisoindolin-2-yl)piperidin-2,6-one] |
| 10 to 1000 | Cc1cccc(C)c1Nc1nn(C)c2nc(Nc3ccc4c(c3)CN(C(=O)/C(C#N)=C/C3CCN(C(=O)c5ccc6c(c5)CN(C5CCC(=O)NC5=O)C6=O)CC3)CC4)ncc12 (stereo not shown) [Compound 259, (E)-2-(7-((3-((2,6-Dimethylphenyl)amino)-1-methyl-1H-pyrazolo[3,4-d]pyrimidin-6-yl)amino)-1,2,3,4-tetrahydroisoquinoline-2-carbonyl)-3-(1-(2-(2,6-dioxopiperidin-3-yl)-1-oxoisoindoline-5-carbonyl)piperidin-4-yl)acrylonitrile] |
